Measured values published in ChEMBL document CHEMBL3885861, “Open TG-GATES”.

Species: Rattus norvegicus
Assay: Open TG-GATES - Regimen: Single
Type: toxicity, organism-based, Sprague-Dawley
Parameters: regimen Single, gender Male, age 6 weeks
Settings: in vivo, po, 2000 mg/kg, route gavage, dose level High; for APTT / Bas / Eos / Fbg / Hb / Ht / Lym / MCH / MCHC / MCV / Mono / Neu / PT / Plat / RBC / Ret / WBC: tissue Blood; for KIDNEY_L / KIDNEY_R / KIDNEY_TOTAL: tissue Kidney; for LIVER: tissue Liver; for A/G / ALP / ALT / AST / BUN / CRE / Ca / Cl / DBIL / GLC / IP / K / LDH / Na / PL / RALB / TBIL / TC / TG / TP / gamma-GTP: tissue Plasma

COc1ccc(O)c(C(C)(C)C)c1.COc1ccc(O)cc1C(C)(C)C [BUTYLATED HYDROXYANISOLE]
TERMINAL_BW (3 h): 203.7 g | APTT (3 h): 15.1 s | Bas (3 h): 0.1% | Eos (3 h): 0.6% | Fbg (3 h): 266 mg/dL | Hb (3 h): 13.4 g/dL | Ht (3 h): 39% | Lym (3 h): 75.5% | MCH (3 h): 21.4 pg | MCHC (3 h): 34.3% | MCV (3 h): 62.3 fL | Mono (3 h): 1.9% | Neu (3 h): 20.8% | PT (3 h): 12.1 s | Plat (3 h): 140.3 x10_4/uL | RBC (3 h): 626.2 x10_4/ul | Ret (3 h): 8.2% | WBC (3 h): 81.2 x10_2/uL | KIDNEY_L (3 h): 0.9 g | KIDNEY_R (3 h): 0.8 g | KIDNEY_TOTAL (3 h): 1.7 g | LIVER (3 h): 7.8 g | A/G (3 h): 0.9 | ALP (3 h): 1489.2 IU/L | ALT (3 h): 51.4 IU/L | AST (3 h): 79 IU/L | BUN (3 h): 9.4 mg/dL | CRE (3 h): 0.2 mg/dL | Ca (3 h): 10.9 mg/dL | Cl (3 h): 105.8 meq/L | DBIL (3 h): 0.028 mg/dL | GLC (3 h): 174.6 mg/dL | IP (3 h): 10 mg/dL | K (3 h): 3.6 meq/L | LDH (3 h): 63.6 IU/L | Na (3 h): 142 meq/L | PL (3 h): 119 mg/dL | RALB (3 h): 2.7 g/dL | TBIL (3 h): 0.096 mg/dL | TC (3 h): 70.4 mg/dL | TG (3 h): 55.4 mg/dL | TP (3 h): 5.7 g/dL | gamma-GTP (3 h): 1 IU/L | TERMINAL_BW (6 h): 202.1 g | APTT (6 h): 16.4 s | Bas (6 h): 0.2% | Eos (6 h): 0.6% | Fbg (6 h): 267.6 mg/dL | Hb (6 h): 13.5 g/dL | Ht (6 h): 39.6% | Lym (6 h): 68.4% | MCH (6 h): 20.9 pg | MCHC (6 h): 34.2% | MCV (6 h): 61.1 fL | Mono (6 h): 2.8% | Neu (6 h): 27% | PT (6 h): 12.6 s | Plat (6 h): 154.9 x10_4/uL | RBC (6 h): 646.8 x10_4/ul | Ret (6 h): 7.5% | WBC (6 h): 78.3 x10_2/uL | KIDNEY_L (6 h): 0.9 g | KIDNEY_R (6 h): 0.9 g | KIDNEY_TOTAL (6 h): 1.7 g | LIVER (6 h): 7.7 g | A/G (6 h): 0.8 | ALP (6 h): 1463.6 IU/L | ALT (6 h): 49 IU/L | AST (6 h): 73.8 IU/L | BUN (6 h): 11.2 mg/dL | CRE (6 h): 0.2 mg/dL | Ca (6 h): 10.8 mg/dL | Cl (6 h): 106.8 meq/L | DBIL (6 h): 0.024 mg/dL | GLC (6 h): 172.4 mg/dL | IP (6 h): 10.4 mg/dL | K (6 h): 4 meq/L | LDH (6 h): 62.4 IU/L | Na (6 h): 141.8 meq/L | PL (6 h): 124.2 mg/dL | RALB (6 h): 2.6 g/dL | TBIL (6 h): 0.084 mg/dL | TC (6 h): 75.8 mg/dL | TG (6 h): 40.8 mg/dL | TP (6 h): 5.8 g/dL | gamma-GTP (6 h): 1.2 IU/L | TERMINAL_BW (9 h): 199.8 g | APTT (9 h): 17.5 s | Bas (9 h): 0.2% | Eos (9 h): 0.7% | Fbg (9 h): 289 mg/dL | Hb (9 h): 13.9 g/dL | Ht (9 h): 40.9% | Lym (9 h): 68.4% | MCH (9 h): 20.7 pg | MCHC (9 h): 34% | MCV (9 h): 60.9 fL | Mono (9 h): 1.6% | Neu (9 h): 28.5% | PT (9 h): 13 s | Plat (9 h): 141.5 x10_4/uL | RBC (9 h): 671.8 x10_4/ul | Ret (9 h): 7% | WBC (9 h): 76.1 x10_2/uL | KIDNEY_L (9 h): 0.9 g | KIDNEY_R (9 h): 0.9 g | KIDNEY_TOTAL (9 h): 1.8 g | LIVER (9 h): 7.2 g | A/G (9 h): 0.8 | ALP (9 h): 1379.8 IU/L | ALT (9 h): 40.8 IU/L | AST (9 h): 69 IU/L | BUN (9 h): 9.2 mg/dL | CRE (9 h): 0.2 mg/dL | Ca (9 h): 10.9 mg/dL | Cl (9 h): 108.2 meq/L | DBIL (9 h): 0.03 mg/dL | GLC (9 h): 167.6 mg/dL | IP (9 h): 10.2 mg/dL | K (9 h): 4 meq/L | LDH (9 h): 58.6 IU/L | Na (9 h): 143.6 meq/L | PL (9 h): 141.4 mg/dL | RALB (9 h): 2.7 g/dL | TBIL (9 h): 0.096 mg/dL | TC (9 h): 87.6 mg/dL | TG (9 h): 42.2 mg/dL | TP (9 h): 5.9 g/dL | gamma-GTP (9 h): 1 IU/L | TERMINAL_BW (24 h): 207.8 g | APTT (24 h): 16.8 s | Bas (24 h): 0.2% | Eos (24 h): 0.8% | Fbg (24 h): 289.8 mg/dL | Hb (24 h): 13.7 g/dL | Ht (24 h): 39.6% | Lym (24 h): 78.6% | MCH (24 h): 21.2 pg | MCHC (24 h): 34.6% | MCV (24 h): 61.3 fL | Mono (24 h): 2.2% | Neu (24 h): 17.4% | PT (24 h): 12.3 s | Plat (24 h): 155.8 x10_4/uL | RBC (24 h): 646.8 x10_4/ul | Ret (24 h): 5.8% | WBC (24 h): 68 x10_2/uL | KIDNEY_L (24 h): 0.9 g | KIDNEY_R (24 h): 0.9 g | KIDNEY_TOTAL (24 h): 1.8 g | LIVER (24 h): 9.3 g | A/G (24 h): 0.8 | ALP (24 h): 1603 IU/L | ALT (24 h): 53 IU/L | AST (24 h): 73.6 IU/L | BUN (24 h): 12.6 mg/dL | CRE (24 h): 0.2 mg/dL | Ca (24 h): 11.5 mg/dL | Cl (24 h): 108.6 meq/L | DBIL (24 h): 0.044 mg/dL | GLC (24 h): 155.2 mg/dL | IP (24 h): 8.5 mg/dL | K (24 h): 4.2 meq/L | LDH (24 h): 82.4 IU/L | Na (24 h): 142.8 meq/L | PL (24 h): 152.2 mg/dL | RALB (24 h): 2.7 g/dL | TBIL (24 h): 0.088 mg/dL | TC (24 h): 93.4 mg/dL | TG (24 h): 217 mg/dL | TP (24 h): 5.9 g/dL | gamma-GTP (24 h): 1 IU/L
